What was measured:
[1] = tested on: ENaC activity in mouse AT2 monolayers; test: Ussing chamber short-circuit current, mAT2 monolayers; assay type: cell-based; conditions: mAT2 (and MTE) monolayers, Isc, Figure 5D
Procedure: Mouse AT2 cell isolation and monolayer cultures. Mouse AT2 cells were isolated from both wt and Scnn1d Tg/Cre strains with C57BL/6 genetic background with a modified protocol of a previous publication, [72]. Briefly, lungs of euthanized mice were removed and incubated in dispase for 45 minutes, and then were gently teased and incubated in DMEM/F-12 + 0.01% DNase I for 10 minutes. Cells were passed through a serial of Nitex filters (100, 40, 30, and 10 microns; Corning, USA) and centrifuged at 300 × g for 10 minutes. Resuspended cells were incubated with biotin conjugated anti-CD16/32, CD45 and CD119 antibodies (BD Pharmingen, USA) and then incubated with streptavidin-coated magnetic particles. The cells were then incubated for 2 h at 37 °C in a plastic culture dish precoated with mouse IgG to remove fibroblasts. Upon passing the request for both viability (> 90%) and purity assays (> 94%) (Figures S7 & S8), mouse laminin 1 precoated transwells (Corning Costar, USA) were seeded with AT2 cells (10^6 cells/cm^2). […] Transepithelial resistance (RT) and potential difference (ET) were measured with an epithelial voltohmmeter (World Precision Instrument, USA). IEQ values were calculated as the ratio of ET / RT values. […] The transmonolayer potential was short circuited to 0 mV, and Isc level was measured with an epithelial voltage clamp (VCC-MC8, Physiologic Instruments). […]

[2] = tested on: alveolar fluid clearance in human lungs; test: Alveolar fluid clearance in human lungs ex vivo; conditions: n=5 per group, 60 minutes after instillation
Excerpt: Alveolar fluid clearance in human lungs ex vivo. The studies followed the guide of the […] and were approved by the Ethics Committee of the China Medical University (CMU) at Shenyang, China. All patients were given oral and written informed consent forms. Human lung tissues were obtained during pulmonary resection surgeries with lung cancer at the First Affiliated Hospital of CMU. There were no fibrous or emphysematous lesions as assessed by preoperative chest CT scanning. Human lung segments were prepared, and AFC measurements were done as described previously. Briefly, the segmental bronchus was occluded by a 10-Fr. balloon catheter immediately after removal of the lung, and occluded segments that were located furthest away from the focus of tumor were chosen. A warmed physiologic saline solution (20 ml; 37°C) containing 5% BSA with or without amiloride (1 mM) was instilled into the distal air spaces through the catheter. After instillation, the lungs were inflated with 100% oxygen at an airway pressure of 7 cm H2O. Alveolar fluid was aspirated 60 minutes after instillation. […] AFC values were calculated as follows: AFC = [(Vi - Vf)/Vi] × 100, where V is the volume of the instilled albumin solution (i) and the final alveolar fluid (f). […]

[3] = tested on: δ802- and γ-ENaC subunits; test: Immunoblot of cleavage of tagged δ802- and γ-ENaC subunits in oocytes by serine proteases; assay type: biochemical, human; conditions: 10 μg/ml, 45 minutes at room temperature
Procedure: Figure 3 Activation of δ802-containing ENaC channels by serine proteases. (A) Activation of δ802βγ ENaC expressed in Xenopus oocytes by two-chain urokinase plasminogen activator (tc-uPA). ENaC activity was measured at the membrane potential of -100 mV at defined time points post incubation with 10 μg/ml tc-uPA. n = 9-15. mean ± s.e.m. * P<0.05 vs data at the zero minute (min). (B) Time course of stimulatory effects of plasmin on δ802βγ-ENaC activity. n=12. * P<0.05. (C) Identification of subunit responsible for plasmin activation. Fold of amiloride-sensitive current (ASI) of ENaC-associated current in the presence of plasmin over that in the absence of plasmin was computed for oocytes expressing δ802+β+γ (δβγ), δ802 alone (δ), δ802+β(δβ), and δ802+γ (δγ). n = 12-15. * P<0.05. (D) Inhibitory effects of α-13 peptide on δ802αβγ- (δαβγ) and αβγ-ENaC activity post treatment of plasmin and aprotinin. Currents (I) at -100 mV were compared in the absence of amiloride (basal, open bar), presence of α-13 peptide (α13, closed bar), and amiloride (amil, grey bar). n=5. * P<0.05 vs basal currents, & P < 0.05 vs those in the presence of α-13 peptide. (E) Fractions of α-13 sensitive currents in cells pre-treated with plasmin and aprotinin. n=8. Control, without pre-treatment. (F) Cleavage of V5-tagged δ802- and γ-ENaC subunits by serine proteases. NI, non-injected oocytes as negative controls for ENaC expression. Oocytes incubated with chymotrypsin (CT, 10 μg/ml), plasmin (PI, 10 μg/ml) for 45 minutes at room temperature. Cells treated with the same volume of saline (‑) were controls for serine proteases.

N=C(N)NC(=O)c1nc(Cl)c(N)nc1N [amiloride]
apparent ki value of amiloride, controls versus δ802-expressing cells [1]: much lesser in controls

Ac-LRGTLPHPLQRLR-NH2 [α-13 peptide]
fraction of total alveolar fluid clearance inhibited [2]: Approximately half

B1: plasmin: serine protease of the plasmin(ogen) signal pathway for fibrinolysis (protein, UniProt P00747 20-580; P00747 581-810, looked up)
Plasmin heavy chain A: EPLDDYVNTQGASLFSVTKKQLGAGSIEECAAKCEEDEEFTCRAFQYHSKEQQCVIMAENRKSSIIIRMRDVVLFEKKVYLSECKTGNGKNYRGTMSKTKNGITCQKWSSTSPHRPRFSPATHPSEGLEENYCRNPDNDPQGPWCYTTDPEKRYDYCDILECEEECMHCSGENYDGKISKTMSGLECQAWDSQSPHAHGYIPSKFPNKNLKKNYCRNPDRELRPWCFTTDPNKRWELCDIPRCTTPPPSSGPTYQCLKGTGENYRGNVAVTVSGHTCQHWSAQTPHTHNRTPENFPCKNLDENYCRNPDGKRAPWCHTTNSQVRWEYCKIPSCDSSPVSTEQLAPTAPPELTPVVQDCYHGDGQSYRGTSSTTTTGKKCQSWSSMTPHRHQKTPENYPNAGLTMNYCRNPDADKGPWCFTTDPSVRWEYCNLKKCSGTEASVVAPPPVVLLPDVETPSEEDCMFGNGKGYRGKRATTVTGTPCQDWAAQEPHRHSIFTPETNPRAGLEKNYCRNPDGDVGGPWCYTTNPRKLYDYCDVPQCAAPSFDCGKPQVEPKKCPGR
Plasmin light chain B: VVGGCVAHPHSWPWQVSLRTRFGMHFCGGTLISPEWVLTAAHCLEKSPRPSSYKVILGAHQEVNLEPHVQEIEVSRLFLEPTRKDIALLKLSSPAVITDKVIPACLPSPNYVVADRTECFITGWGETQGTFGAGLLKEAQLPVIENKVCNRYEFLNGRVQSTELCAGHLAGGTDSCQGDSGGPLVCFEKDKYILQGVTSWGLGCARPNKPGVYVRVSRFVTWIEGVMRNN
modifications: Plasmin
notes: serine protease of the plasmin(ogen) signal pathway for fibrinolysis
cleavage of γ-ENaC [3]: catalyzed | cleavage of δ802 subunit [3]: Neither chymotrypsin nor plasmin nor endogenous furin cleaved the δ802 subunit

From PMC6857051, “Proliferative regulation of alveolar epithelial type 2 progenitor cells by human Scnn1d gene” (Theranostics, 2019)
